The supplement of paper PMC4862054

What was measured:
[1] = tested on: HDQ-P1; details: 72 h
Procedure, shortened: (§1)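 In this assay, breast cancer cell lines spent 72 h with compound at 5 concentrations in 10-fold steps over a compound-specific 10,000-fold range. The first readout was cell death by CellTox Green fluorescence, and the second was viability by CellTiter-Glo luminescence, each normalised per plate to 0.1 % DMSO and a positive kill control. EC50 came from the dose-response curves, censored at the top concentration.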

[2] = tested on: HCC1143; details: 72 h
Procedure, shortened: as §1

[3] = tested on: CAL-85-1; test: drug sensitivity score (DSS), CellTiter-Glo (DSS (AUC-based score)); higher = stronger drug effect (viability inhibition or cytotoxicity); extreme values may be limits of the assay; details: incubation time: 72 h
Procedure, shortened: (§2)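 Each compound occupied 5 concentrations in 10-fold steps over its own 10,000-fold range in 384-well plates, into which breast cancer cell lines were seeded as 20 µl suspension. Following 72 h of incubation, CellTox Green fluorescence (485/520 nm) was measured, and CellTiter-Glo luminescence was measured after 10 min at room temperature. Plates were individually normalised to 0.1 % DMSO and a positive kill control. From the area under the fitted dose-response curve, a drug sensitivity score was calculated.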

[4] = tested on: CAL-148; test: as above; details: incubation time: 72 h
Procedure, shortened: as §2

[5] = tested on: Hs578T; details: 72 h
Experimental: (§3)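 Drug sensitivity and resistance testing (DSRT) of breast cancer cell lines in 384-well plates, 5 concentrations in 10-fold dilutions over a compound-specific 10,000-fold range. After 72 h, cytotoxicity was read by CellTox Green fluorescence and viability by CellTiter-Glo luminescence (multiplexed), normalised to DMSO and benzethonium chloride controls. EC50 is the inflection point of the fitted dose-response curve (bottom asymptote free, so it can be relative for partial curves) and is censored at the highest tested concentration. Rows with DSS 0 (no meaningful response) were excluded.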

[6] = tested on: MDA-MB-231; details: 72 h
Experimental: as §3

[7] = tested on: MDA-MB-453; details: 72 h
Experimental: as §3

[8] = tested on: CAL-51; details: 72 h
Experimental: as §3

[9] = tested on: MCF-10A; details: 72 h
Experimental: as §3

[10] = tested on: CAL-120; details: 72 h
Experimental: as §3

[11] = tested on: MDA-MB-436; details: 72 h
Experimental: as §3

[12] = tested on: MDA-MB-468; details: 72 h
Procedure, shortened: (§4)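 Plates of 384 wells holding compound in 5 µl medium received breast cancer cell lines in 20 µl suspension and were incubated 72 h. CellTiter-Blue (2.5 µl, 2 h, 37 °C) was used for viability, read at 560/590 nm, and every plate was normalised to vehicle and a positive kill control and assessed by Z'-factor. The EC50 derives from a percent-inhibition dose-response curve fit censored at the highest concentration, leaving out rows whose drug sensitivity score was zero.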

[13] = tested on: HCC1937; details: 72 h
Procedure, shortened: as §4

[14] = tested on: SK-BR-3; details: 72 h
Procedure, shortened: as §4

[15] = tested on: MFM-223; details: 72 h
Procedure, shortened: as §4

[16] = tested on: BT-549; details: 72 h
Procedure, shortened: as §4

[17] = tested on: BT-474; details: 72 h
Procedure, shortened: as §4

[18] = tested on: Hs578T; details: 72 h; remark: listed apart in the source
Procedure, shortened: as §4

[19] = tested on: HCC1599; details: 72 h
Procedure, shortened: as §4

[20] = tested on: MDA-MB-231; details: 72 h; remark: listed apart in the source
Procedure, shortened: as §4

[21] = tested on: MDA-MB-436; details: 72 h; remark: listed apart in the source
Procedure, shortened: as §4

[22] = tested on: CAL-120; details: 72 h; remark: listed apart in the source
Procedure, shortened: as §4

[23] = tested on: HCC1143; details: 72 h; remark: listed apart in the source
Procedure, shortened: as §4

[24] = tested on: DU-4475; details: 72 h
Procedure, shortened: as §4

[25] = tested on: CAL-85-1; details: 72 h
Procedure, shortened: as §4

[26] = tested on: CAL-51; details: 72 h; remark: listed apart in the source
Procedure, shortened: as §4

[27] = tested on: HDQ-P1; details: 72 h; remark: listed apart in the source
Procedure, shortened: as §4

[28] = tested on: CAL-148; details: 72 h
Procedure, shortened: as §4

[29] = tested on: MFM-223; details: 72 h; remark: listed apart in the source
Procedure, shortened: as §1

[30] = tested on: DU-4475; details: 72 h; remark: listed apart in the source
Procedure, shortened: as §1

[31] = tested on: HCC1599; details: 72 h; remark: listed apart in the source
Procedure, shortened: as §1

[32] = tested on: CAL-148; details: 72 h; remark: listed apart in the source
Procedure, shortened: as §1

[33] = tested on: CAL-85-1; details: 72 h; remark: listed apart in the source
Experimental: as §3

[34] = tested on: BT-549; details: 72 h; remark: listed apart in the source
Experimental: as §3

[35] = tested on: BT-474; details: 72 h; remark: listed apart in the source
Experimental: as §3

[36] = tested on: MDA-MB-468; details: 72 h; remark: listed apart in the source
Experimental: as §3

[37] = tested on: HDQ-P1; details: 72 h; remark: listed apart in the source
Experimental: as §3

[38] = tested on: CAL-148; details: 72 h; remark: listed apart in the source
Experimental: as §3

[39] = tested on: HCC1937; details: 72 h; remark: listed apart in the source
Experimental: as §3

Structure (SMILES)	EC50, CellTiter-Glo [1]	EC50, CellTiter-Glo [2]	drug sensitivity score [3]	drug sensitivity score [4]	EC50, CellTox Green [5]	EC50, CellTox Green [6]	EC50, CellTox Green [7]	EC50, CellTox Green [8]	EC50, CellTox Green [9]	EC50, CellTox Green [10]	EC50, CellTox Green [11]	EC50, CellTiter-Blue viability [12]	EC50, CellTiter-Blue viability [13]	EC50, CellTiter-Blue viability [14]	EC50, CellTiter-Blue viability [15]	EC50, CellTiter-Blue viability [16]	EC50, CellTiter-Blue viability [17]	EC50, CellTiter-Blue viability [18]	EC50, CellTiter-Blue viability [19]	EC50, CellTiter-Blue viability [20]	EC50, CellTiter-Blue viability [21]	EC50, CellTiter-Blue viability [22]	EC50, CellTiter-Blue viability [23]	EC50, CellTiter-Blue viability [24]	EC50, CellTiter-Blue viability [25]	EC50, CellTiter-Blue viability [26]	EC50, CellTiter-Blue viability [27]	EC50, CellTiter-Blue viability [28]	EC50, CellTiter-Glo [29]	EC50, CellTiter-Glo [30]	EC50, CellTiter-Glo [31]	EC50, CellTiter-Glo [32]	EC50, CellTox Green [33]	EC50, CellTox Green [34]	EC50, CellTox Green [35]	EC50, CellTox Green [36]	EC50, CellTox Green [37]	EC50, CellTox Green [38]	EC50, CellTox Green [39]
CC(C)c1c(C(=O)Nc2ccccc2)c(-c2ccccc2)c(-c2ccc(F)cc2)n1CC[C@@H](O)C[C@@H](O)CC(=O)O [Atorvastatin]	1250 nM	2030 nM	3.85	0	3780 nM	796 nM	> 10000 nM	668 nM	1940 nM	9010 nM	–	–	–	–	–	–	–	–	–	–	–	–	–	–	–	–	–	–	–	–	–	–	–	–	–	–	–	–	–
O=C(O)CCCc1ccc(N(CCCl)CCCl)cc1 [Chlorambucil]	–	–	0	0	–	–	–	–	–	–	> 10000 nM	5340 nM	731 nM	–	–	–	–	–	–	–	–	–	–	–	–	–	–	–	–	–	–	–	–	–	–	–	–	–	–
Cn1c(=O)n(-c2ccc(C(C)(C)C#N)cc2)c2c3cc(-c4cnc5ccccc5c4)ccc3ncc21 [NVP-BEZ235]	–	–	–	–	–	–	–	–	–	–	–	27.1 nM	6.87 nM	26.4 nM	7.73 nM	12.8 nM	21.7 nM	8.08 nM	20.8 nM	12.9 nM	52.5 nM	10.1 nM	15.2 nM	54 nM	12.6 nM	10.1 nM	10.8 nM	17.6 nM	–	–	–	–	–	–	–	–	–	–	–
Cn1cncc1[C@@](N)(c1ccc(Cl)cc1)c1ccc2c(c1)c(-c1cccc(Cl)c1)cc(=O)n2C [Tipifarnib]	106 nM	–	1.05	7.28	–	–	–	19.9 nM	–	–	–	5590 nM	101 nM	540 nM	1010 nM	3730 nM	1450 nM	4400 nM	151 nM	97.8 nM	–	55.5 nM	7.7 nM	59.1 nM	33.1 nM	1500 nM	16.6 nM	33 nM	5050 nM	412 nM	8630 nM	380 nM	4740 nM	–	–	–	–	–	–
CN(C)C[C@@H]1CCn2cc(c3ccccc32)C2=C(C(=O)NC2=O)c2cn(c3ccccc23)CCO1 [Ruboxistaurin]	2720 nM	9320 nM	5.13	8.61	–	2010 nM	3790 nM	1580 nM	–	–	1000 nM	2690 nM	4090 nM	2400 nM	1480 nM	8000 nM	2790 nM	8920 nM	1730 nM	4700 nM	505 nM	6140 nM	–	2740 nM	–	4800 nM	3540 nM	4840 nM	3220 nM	3790 nM	–	1750 nM	2320 nM	7220 nM	370 nM	2490 nM	5090 nM	999 nM	7550 nM
